Among the data in patent US6727275B2, “Pyrrolidinone derivatives” (UCB, S.A./N.V., priority 2001, dated 2004) are IC50 values, retold here.

Read-outs that look alike come from different tables or passages of the source.

The target in this test is T1, CCR2 (Homo sapiens, UniProt P41597).
T1 sequence (P41597 1-360 isoform P41597-2): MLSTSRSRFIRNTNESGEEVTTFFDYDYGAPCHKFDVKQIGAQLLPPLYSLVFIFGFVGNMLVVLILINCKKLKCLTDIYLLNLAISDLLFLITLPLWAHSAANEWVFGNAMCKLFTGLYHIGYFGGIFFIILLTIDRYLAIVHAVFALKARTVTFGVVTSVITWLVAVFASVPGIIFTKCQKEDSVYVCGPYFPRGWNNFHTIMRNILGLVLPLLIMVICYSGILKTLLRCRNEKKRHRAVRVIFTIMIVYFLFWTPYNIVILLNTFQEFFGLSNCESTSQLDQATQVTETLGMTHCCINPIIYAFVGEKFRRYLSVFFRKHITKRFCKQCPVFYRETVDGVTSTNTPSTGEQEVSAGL
The test is described as follows: Binding assay: inhibition of 125I-MCP-1 binding to THP-1 cells. Also on record: CCR2 is also expressed in the human monocytic cell line THP-1; endogenous in cells; host or cells: THP-1 (human monocytic cell line), whole cells. On the procedure: Antagonism of the CCR2 receptor is determined by a binding assay using the human monocytic cell line THP-1. Cells are suspended in assay buffer (RPMI+1% BSA+25 mM HEPES) at 3×10^6 cells/ml and an aliquot (180 μl) added to a 0.5 ml siliconized Eppendorf tube. […] After incubation for 1 hr at room temperature, the cell suspension is centrifuged through oil and the cell pellets counted to quantitate cell-bound ligand. Nonspecific (NS) binding of radioligand is determined by the addition of 100 nM cold MCP-1. Control binding is determined by the addition of buffer without compound.

Where [1] appears, read: THP-1 cells, 0.1 nM 125I-MCP-1, 1 hr at room temperature, read-out: Inhibition of 125I-MCP-1 binding to THP-1 cells, IC50.

In general, IC50 refers to the midpoint of a concentration-inhibition curve. For the compound `CC(=O)C1=C(O)C(=O)N(Cc2ccccc2)C1C1CCCCC1` (racemic) [Compound 7, 4-acetyl-1-benzyl-5-cyclohexyl-3-hydroxy-1,5-dihydro-2H-pyrrol-2-one], the IC50 under setting [1] was no more than 5 µM. Same read-out and setting: for `CC(=O)C1=C(O)C(=O)N(Cc2ccccc2)C1c1ccco1` (racemic) [Compound 8, 4-acetyl-1-benzyl-5-(2-furyl)-3-hydroxy-1,5-dihydro-2H-pyrrol-2-one] the value was no more than 5 µM. On the same count and under the same terms, with `CC(=O)C1=C(O)C(=O)N(c2ccc(Br)cc2)C1c1ccc(Br)cc1` (racemic) [Compound 9, 4-acetyl-1,5-bis(4-bromophenyl)-3-hydroxy-1,5-dihydro-2H-pyrrol-2-one] the figure was no more than 5 µM; with `CCC(CC)C1C(C(C)=O)=C(O)C(=O)N1c1ccc(C)cc1` (racemic) [Compound 13, 4-acetyl-5-(1-ethylpropyl)-3-hydroxy-1-(4-methylphenyl)-1,5-dihydro-2H-pyrrol-2-one], no more than 5 µM.

`COc1ccc(N2C(=O)C(O)=C(C(C)=O)C2C2CCCCC2)cc1` (racemic) [Compound 14, 4-acetyl-5-cyclohexyl-3-hydroxy-1-(4-methoxyphenyl)-1,5-dihydro-2H-pyrrol-2-one]: the IC50 under setting [1] is no more than 5 µM. Still for that read-out and setting: for `CC(=O)C1=C(O)C(=O)N(c2cccc(C)c2)C1C1CCCCC1` (racemic) [Compound 16, 4-acetyl-5-cyclohexyl-3-hydroxy-1-(3-methylphenyl)-1,5-dihydro-2H-pyrrol-2-one] the value was no more than 5 µM. Turning to `CC(=O)C1=C(O)C(=O)N(c2ccc(Br)cc2)C1C1CCCCC1` (racemic) [Compound 17, 4-acetyl-1-(4-bromophenyl)-5-cyclohexyl-3-hydroxy-1,5-dihydro-2H-pyrrol-2-one], the half-maximal inhibitory concentration (IC50) under setting [1] is no more than 5 µM. For `CC(=O)C1=C(O)C(=O)N(c2ccc(C)cc2)C1c1ccc(Br)cc1` (racemic) [Compound 20, 4-acetyl-5-(4-bromophenyl)-3-hydroxy-1-(4-methylphenyl)-1,5-dihydro-2H-pyrrol-2-one], the IC50 under setting [1] is no more than 5 µM. The same measure, in the same setting: for `CC(=O)C1=C(O)C(=O)N(c2ccccc2)C1C1CCCCC1` (racemic) [Compound 23, 4-acetyl-5-cyclohexyl-3-hydroxy-1-phenyl-1,5-dihydro-2H-pyrrol-2-one] the value was no more than 5 µM; for `CC(=O)C1=C(O)C(=O)N(c2ccc(F)cc2)C1C1CCCCC1` (racemic) [Compound 25, 4-acetyl-5-cyclohexyl-1-(4-fluorophenyl)-3-hydroxy-1,5-dihydro-2H-pyrrol-2-one], no more than 5 µM.

`CCCC(CCC)C1C(C(C)=O)=C(O)C(=O)N1c1ccc(C)cc1` (racemic) [Compound 39, 4-acetyl-3-hydroxy-1-(4-methylphenyl)-5-(1-propylbutyl)-1,5-dihydro-2H-pyrrol-2-one] yielded an IC50 of no more than 5 µM. On to `CC(=O)C1=C(O)C(=O)N(c2ccc(C)cc2)C1CC(C)C` (racemic) [Compound 40, 4-acetyl-3-hydroxy-5-isobutyl-1-(4-methylphenyl)-1,5-dihydro-2H-pyrrol-2-one], for which the IC50 under setting [1] is no more than 5 µM. Still for that read-out and setting: for `Cc1ccc(N2C(=O)C(O)=C(C(=O)C(C)(C)C)C2C2CCCCC2)cc1` (racemic) [Compound 41, 5-cyclohexyl-4-(2,2-dimethylpropanoyl)-3-hydroxy-1-(4-methylphenyl)-1,5-dihydro-2H-pyrrol-2-one] the value was no more than 5 µM. On the same count and under the same terms, with `CC(=O)C1=C(O)C(=O)N(c2cccc(Cl)c2)C1C1CCCCC1` (racemic) [Compound 43, 4-acetyl-1-(3-chlorophenyl)-5-cyclohexyl-3-hydroxy-1,5-dihydro-2H-pyrrol-2-one] the figure was no more than 5 µM; with `CC(=O)C1=C(O)C(=O)N(c2cccc(Br)c2)C1C1CCCCC1` (racemic) [Compound 44, 4-acetyl-1-(3-bromophenyl)-5-cyclohexyl-3-hydroxy-1,5-dihydro-2H-pyrrol-2-one], no more than 5 µM.

As to `CC(=O)C1=C(O)C(=O)N(c2ccc(C)c(F)c2)C1C1CCCCC1` (racemic) [Compound 47, 4-acetyl-5-cyclohexyl-1-(3-fluoro-4-methylphenyl)-3-hydroxy-1,5-dihydro-2H-pyrrol-2-one], under setting [1], the 50% inhibitory concentration (IC50) is no more than 5 µM. Same read-out and setting: with `CC(=O)C1=C(O)C(=O)N(c2ccc(Cl)c(Cl)c2)C1C1CCCCC1` (racemic) [Compound 48, 4-acetyl-5-cyclohexyl-1-(3,4-dichlorophenyl)-3-hydroxy-1,5-dihydro-2H-pyrrol-2-one] the figure was no more than 5 µM; with `CC(=O)C1=C(O)C(=O)N(c2ccc(C(F)(F)F)cc2)C1C1CCCCC1` (racemic) [Compound 49, 4-acetyl-5-cyclohexyl-3-hydroxy-1-[4-(trifluoromethyl)phenyl]-1,5-dihydro-2H-pyrrol-2-one], no more than 5 µM. Same read-out and setting: for `CC(=O)C1=C(O)C(=O)N(c2ccc(C(C)C)cc2)C1C1CCCCC1` (racemic) [Compound 52, 4-acetyl-5-cyclohexyl-3-hydroxy-1-(4-isopropylphenyl)-1,5-dihydro-2H-pyrrol-2-one] the value was no more than 5 µM; for `CC(=O)C1=C(O)C(=O)N(c2ccc(C)cc2F)C1C1CCCCC1` (racemic) [Compound 54, 4-acetyl-5-cyclohexyl-1-(2-fluoro-4-methylphenyl)-3-hydroxy-1,5-dihydro-2H-pyrrol-2-one], no more than 5 µM. Same read-out and setting: for `CC(=O)C1=C(O)C(=O)N(c2ccc(Cl)c(C(F)(F)F)c2)C1C1CCCCC1` (racemic) [Compound 55, 4-acetyl-1-[4-chloro-3-(trifluoromethyl)phenyl]-5-cyclohexyl-3-hydroxy-1,5-dihydro-2H-pyrrol-2-one] the value was no more than 5 µM; for `CC(=O)C1=C(O)C(=O)N(c2ccc(C)cc2)C1C1CCCC1` (racemic) [Compound 56, 4-acetyl-5-cyclopentyl-3-hydroxy-1-(4-methylphenyl)-1,5-dihydro-2H-pyrrol-2-one], no more than 5 µM. Take `CC(=O)C1=C(O)C(=O)N(c2ccc(C)cc2)C1C12CC3CC(CC(C3)C1)C2` (racemic) [Compound 58, 4-acetyl-5-(1-adamantyl)-3-hydroxy-1-(4-methylphenyl)-1,5-dihydro-2H-pyrrol-2-one]: the IC50 under setting [1] was no more than 5 µM.

Turning to `CC(=O)C1=C(O)C(=O)N(c2ccc(C)c(Cl)c2)C1C1CCCCC1` (racemic) [Compound 59, 4-acetyl-1-(3-chloro-4-methylphenyl)-5-cyclohexyl-3-hydroxy-1,5-dihydro-2H-pyrrol-2-one], the IC50 under setting [1] was no more than 5 µM. The same measure, in the same setting: with `CC(=O)C1=C(N)C(=O)N(c2ccc(C)cc2)C1C1CCCCC1` (racemic) [Compound 61, 4-acetyl-3-amino-5-cyclohexyl-1-(4-methylphenyl)-1,5-dihydro-2H-pyrrol-2-one] the figure was no more than 5 µM; with `CC(=O)C1=C(O)C(=O)N(c2ccc(F)cc2F)C1C1CCCCC1` (racemic) [Compound 62, 4-acetyl-5-cyclohexyl-1-(2,4-difluorophenyl)-3-hydroxy-1,5-dihydro-2H-pyrrol-2-one], no more than 5 µM. Still for that read-out and setting: for `CC(=O)C1=C(O)C(=O)N(c2ccc3c(c2)CCC3)C1C1CCCCC1` (racemic) [Compound 63, 4-acetyl-5-cyclohexyl-1-(2,3-dihydro-1H-inden-5-yl)-3-hydroxy-1,5-dihydro-2H-pyrrol-2-one] the value was no more than 5 µM; for `CC(=O)C1=C(O)C(=O)N(c2ccc(F)c(C)c2)C1C1CCCCC1` (racemic) [Compound 64, 4-acetyl-5-cyclohexyl-1-(4-fluoro-3-methylphenyl)-3-hydroxy-1,5-dihydro-2H-pyrrol-2-one], no more than 5 µM; for `CC(=O)C1=C(O)C(=O)N(c2ccc(C)c(C)c2)C1C1CCCCC1` (racemic) [Compound 65, 4-acetyl-5-cyclohexyl-1-(3,4-dimethylphenyl)-3-hydroxy-1,5-dihydro-2H-pyrrol-2-one], no more than 5 µM. On the same count and under the same terms, for `CC(=O)C1=C(O)C(=O)N(c2ccc(Cl)c([N+](=O)[O-])c2)C1C1CCCCC1` (racemic) [Compound 66, 4-acetyl-1-(4-chloro-3-nitrophenyl)-5-cyclohexyl-3-hydroxy-1,5-dihydro-2H-pyrrol-2-one] the value was no more than 5 µM; for `CC(=O)C1=C(O)C(=O)N(c2ccc(C)cc2)C1C1CCCCCC1` (racemic) [Compound 68, 4-acetyl-5-cycloheptyl-3-hydroxy-1-(4-methylphenyl)-1,5-dihydro-2H-pyrrol-2-one], no more than 5 µM; for `CCc1cc(N2C(=O)C(O)=C(C(C)=O)C2C2CCCCC2)ccc1Cl` (racemic) [Compound 70, 4-acetyl-1-(4-chloro-3-ethylphenyl)-5-cyclohexyl-3-hydroxy-1,5-dihydro-2H-pyrrol-2-one], no more than 5 µM.

In the case of `CC(=O)C1=C(O)C(=O)N(c2ccc(Cl)c(N)c2)C1C1CCCCC1` (racemic) [Compound 71, 4-acetyl-1-(3-amino-4-chlorophenyl)-5-cyclohexyl-3 hydroxy-1,5-dihydro-2H-pyrrol-2-one], the IC50 under setting [1] is no more than 5 µM. The same measure, in the same setting: for `CC(=O)C1=C(O)C(=O)N(c2ccc(C)c(Br)c2)C1C1CCCCC1` (racemic) [Compound 73, 4-acetyl-1-(3-bromo-4-methylphenyl)-5-cyclohexyl-3-hydroxy-1,5-dihydro-2H-pyrrol-2-one] the value was no more than 5 µM.
